# In patent US10441630B2, “Topical formulations and uses thereof” (OCULAR TECHNOLOGIES SARL, priority 2012, dated 2019):
# Assays:
# [1] = Mixed nanomicellar size and polydispersity index (Zetasizer) of compound 1001 MNF; format: physicochemical; settings: HCO-60 4 wt %, Octoxynol-40 0.01 wt %
# Protocol: The formulation size and polydispersity index were determined with Zetasizer, Malvern Instruments, NJ. In brief, approximately 1 ml of each formulation was transferred to a cuvette and placed in the instrument. A laser beam of light was used to determine the mixed nanomicellar size.
# (§1) Mixed nanomicellar formulation encapsulating compound 1001 was prepared by solvent evaporation method in two steps: 1) Preparation of basic formulation and 2) rehydration. In step one, compound 1001, HCO-60 and octoxynol-40 were dissolved separately in 0.3 mL of ethyl acetate. These three solutions were mixed together in 15-mL centrifuge tube. The resultant mixture was vortexed to obtain a homogenous solution. Ethyl acetate solvent was removed with speed vacuum to obtain a solid thin film. The residue was kept overnight under high vacuum at room temperature to remove residual organic solvent. In step two, the resultant thin film was hydrated with 1 mL of double distilled deionized water by vortexing the solution. The rehydrated formulation was suspended in 2× phosphate buffer solution, (pH 6.5). It was filtered through 0.2 μm nylon filter membrane to remove the unentrapped drug aggregates and other foreign particulates. The entrapment of compound 1001 was determined by RP-HPLC following disruption of the micelles and solubilization of 1001 in the diluent (2-propanol) as described below
# (§2) Weight percent of drug loaded into MNF was determined following the method for entrapment efficiency. Size and polydispersity index of the formulations was determined with Malvern zetasizer as described above. The formulations appear clear and have small size and narrow size distribution.
# [2] = Physical appearance, melt method, HCO-40 and compound 1001; format: physicochemical; settings: 1001 4 wt %
# Protocol: (§3) The preparation of MNF encapsulating compound 1001 (neat oil) can be divided into two steps. […] […] To this melt polymer compound 1001 (˜20 mg), thermostated at 40° C., was added and mixed for homogenous distribution. […] (in refrigerator).
# (§4) This aqueous solution was allowed to reach room temperature, under natural conditions. The pH of the solution was adjusted to 5.5 and the volume was made up with 2× phosphate buffer saline (pH 5.5) containing octoxynol-40 (0.01 wt %) and PVP-K-90 (1.2 wt %). The formulation was filtered through 0.2 μm nylon filter to remove any foreign material and obtain a clear homogenous aqueous RX-1001 formulation.
# (§5) The results obtained for physical appearance of the mixture, different phases, at different temperatures and appearance of final formulation are summarized in Tables 3a-3c.
# [3] = Ocular tissue distribution of compound 1001 and RX-10008 by LC-MS/MS; format: in vivo, rabbit
# Protocol: A study was conducted in rabbits to test the tolerance and ocular tissue distribution of two nanomicellar formulations of compound 1001 (RX10045) against matching placebos (Table 7a and 7b) and balanced saline solution (BSS). Healthy New Zealand female white rabbits (2-3 kg) were used for this study. One drop (approximately 35 μL) of study drug was applied o.d. 4×/day at two hour intervals for 5 days. One drop of BSS was applied to the contralateral eye.
# Selected ocular fluids/tissues (aqueous humor, vitreous humor, conjunctiva, cornea, iris-ciliary body, lens, retina/choroid, and sclera) collected from two rabbits each in the RX-10045 (0.15% in HCO-60, 0.1% in HCO-40) treatment groups, and from one rabbit in each of the matching placebo groups, were assayed for compound 1001 and another resolvin by liquid chromatography-tandem mass spectrometry (LC-MS/MS). Warfarin-d5 and 5-HDA were used as internal standards for the analysis of RX-10045 and its active metabolite, RX-10008, respectively, in aqueous humor and vitreous humor. For the other ocular tissues (solid tissues), warfarin-d5 and phenyl acetic acid-d5 (PAA-d5) were used as the internal standards for compound 1001 and RX-10008, respectively. The analytical range for the solid tissues were 0.125-100 ng. The results of the solid tissue analyses were converted to ng/g by correcting for the amount of tissue analyzed.
# [4] = Appearance of compound 1001 MNF, solvent evaporation method; format: physicochemical; settings: HCO-60 4 wt %, Octoxynol-40 0.01 wt %
# Protocol: as §1, §2
# [5] = Physical appearance, melt method, HCO-60 and compound 1001; format: physicochemical; settings: 1001 4 wt %; for Resuspend in water: water at 40° C.; for Physical appearance at room temperature (25° C.): melt mixture
# Protocol: as §3, §4, §5
# [6] = 1001 initially added 0.035 wt %
# [7] = 1001 initially added 0.070 wt %
# [8] = 1001 initially added 0.095 wt %
# [9] = 1001 initially added 0.120 wt %
# [10] = 1001 initially added 0.250 wt %
# [11] = 1001 initially added 0.300 wt %
# [12] = 1001 initially added 0.400 wt %
# [13] = rabbits, RX-10045 formulations 4×/day for 5 days
smiles,measurement,setting,value
C#CC[C@@H](O)/C=C/C=C/C#C[C@@H](O)CCCC(=O)OC(C)C [compound 1001],Mixed nanomicellar size (nm),[1]; [6],24.90 nm
same,Polydispersity Index,[1]; [6],0.442
same,Mixed nanomicellar size (nm),[1]; [7],25.01 nm
same,Polydispersity Index,[1]; [7],0.414
same,Mixed nanomicellar size (nm),[1]; [8],24.79 nm
same,Polydispersity Index,[1]; [8],0.415
same,Mixed nanomicellar size (nm),[1]; [9],18.28 nm
same,Polydispersity Index,[1]; [9],0.320
same,Mixed nanomicellar size (nm),[1]; [10],18.37 nm
same,Polydispersity Index,[1]; [10],0.331
same,Mixed nanomicellar size (nm),[1]; [11],18.29 nm
same,Polydispersity Index,[1]; [11],0.345
same,Mixed nanomicellar size (nm),[1]; [12],18.2 nm
same,Polydispersity Index,[1]; [12],0.333
same,Final formulation,[2]; HCO-40 0.5 wt %,Emulsion
same,Mixture physical appearance at room temperature (25° C.),[2]; HCO-40 0.5 wt %,Viscous yellow liquid
same,Resuspend in water,[2]; HCO-40 0.5 wt %,Emulsion
same,Final formulation,[2]; HCO-40 0.75 wt %,Emulsion
same,Mixture physical appearance at room temperature (25° C.),[2]; HCO-40 0.75 wt %,Viscous yellow liquid
same,Resuspend in water,[2]; HCO-40 0.75 wt %,Emulsion
same,Final formulation,[2]; HCO-40 1.0 wt %,Emulsion
same,Mixture physical appearance at room temperature (25° C.),[2]; HCO-40 1.0 wt %,Viscous yellow liquid
same,Resuspend in water,[2]; HCO-40 1.0 wt %,Emulsion
same,Final formulation,[2]; HCO-40 1.25 wt %,Emulsion
same,Mixture physical appearance at room temperature (25° C.),[2]; HCO-40 1.25 wt %,Viscous yellow liquid
same,Resuspend in water,[2]; HCO-40 1.25 wt %,Emulsion
same,Final formulation,[2]; HCO-40 1.5 wt %,Emulsion
same,Mixture physical appearance at room temperature (25° C.),[2]; HCO-40 1.5 wt %,Viscous yellow liquid
same,Resuspend in water,[2]; HCO-40 1.5 wt %,Emulsion
same,Final formulation,[2]; HCO-40 1.75 wt %,Emulsion
same,Mixture physical appearance at room temperature (25° C.),[2]; HCO-40 1.75 wt %,Viscous yellow liquid
same,Resuspend in water,[2]; HCO-40 1.75 wt %,Emulsion
same,Final formulation,[2]; HCO-40 2.0 wt %,Emulsion
same,Mixture physical appearance at room temperature (25° C.),[2]; HCO-40 2.0 wt %,Viscous yellow liquid
same,Resuspend in water,[2]; HCO-40 2.0 wt %,Emulsion
same,Final formulation,[2]; HCO-40 2.25 wt %,Emulsion
same,Mixture physical appearance at room temperature (25° C.),[2]; HCO-40 2.25 wt %,Viscous yellow liquid
same,Resuspend in water,[2]; HCO-40 2.25 wt %,Emulsion
same,Final formulation,[2]; HCO-40 2.5 wt %,Yellow color
same,Mixture physical appearance at room temperature (25° C.),[2]; HCO-40 2.5 wt %,Viscous yellow liquid
same,Resuspend in water,[2]; HCO-40 2.5 wt %,Yellow
same,Final formulation,[2]; HCO-40 2.75 wt %,Pale yellow
same,Mixture physical appearance at room temperature (25° C.),[2]; HCO-40 2.75 wt %,Viscous yellow liquid
same,Resuspend in water,[2]; HCO-40 2.75 wt %,Pale
same,Final formulation,[2]; HCO-40 3.0 wt %,Clear solution
same,Mixture physical appearance at room temperature (25° C.),[2]; HCO-40 3.0 wt %,Viscous yellow liquid
same,Resuspend in water,[2]; HCO-40 3.0 wt %,Clear
same,Final formulation,[2]; HCO-40 4.0 wt %,Clear solution
same,Mixture physical appearance at room temperature (25° C.),[2]; HCO-40 4.0 wt %,Viscous yellow liquid
same,Resuspend in water,[2]; HCO-40 4.0 wt %,Clear
same,hydrolysis to active metabolite RX-10008,[3]; rabbit ocular tissues,rapidly hydrolyzed
same,compound 1001 in the majority of ocular tissues,[3]; [13],either not detected or was below the quantitation limit
same,concentrations of the compound 1001 ester prodrug in the sclera and conjunctiva,[3]; [13],"sporadic, relatively low"
same,Result,[4]; [6],Clear/transparent
same,Result,[4]; [7],Clear/transparent
same,Result,[4]; [8],Clear/transparent
same,Result,[4]; [9],Pale yellow color
same,Result,[4]; [10],Yellow color
same,Result,[4]; [11],Yellow color
same,Result,[4]; [12],Yellow color
same,Final formulation (make up with 2X buffer containing 0.01% Oc-40),[5]; HCO-60 1.0 wt %,Emulsion
same,Resuspend in water,[5]; HCO-60 1.0 wt %,Emulsion
same,Final formulation (make up with 2X buffer containing 0.01% Oc-40),[5]; HCO-60 2.0 wt %,Pale yellow clear
same,Resuspend in water,[5]; HCO-60 2.0 wt %,Forms pale
same,Final formulation (make up with 2X buffer containing 0.01% Oc-40),[5]; HCO-60 2.25 wt %,Pale yellow clear
same,Resuspend in water,[5]; HCO-60 2.25 wt %,Forms pale
same,Final formulation (make up with 2X buffer containing 0.01% Oc-40),[5]; HCO-60 2.5 wt %,Pale yellow clear
same,Resuspend in water,[5]; HCO-60 2.5 wt %,Forms very
same,Final formulation (make up with 2X buffer containing 0.01% Oc-40),[5]; HCO-60 2.75 wt %,Clear solution
same,Resuspend in water,[5]; HCO-60 2.75 wt %,Forms very
same,Final formulation (make up with 2X buffer containing 0.01% Oc-40),[5]; HCO-60 3.0 wt %,Clear solution
same,Resuspend in water,[5]; HCO-60 3.0 wt %,Clear solution
same,Final formulation (make up with 2X buffer containing 0.01% Oc-40),[5]; HCO-60 3.5 wt %,Clear solution
same,Resuspend in water,[5]; HCO-60 3.5 wt %,Clear solution
same,Final formulation (make up with 2X buffer containing 0.01% Oc-40),[5]; HCO-60 4.0 wt %,Clear solution
same,Resuspend in water,[5]; HCO-60 4.0 wt %,Clear solution
same,Physical appearance at room temperature (25° C.),[5]; HCO-60 1.0 wt %,Pale yellow half
same,Physical appearance at room temperature (25° C.),[5]; HCO-60 2.0 wt %,Pale yellow
same,Physical appearance at room temperature (25° C.),[5]; HCO-60 2.25 wt %,Pale yellow waxy
same,Physical appearance at room temperature (25° C.),[5]; HCO-60 2.5 wt %,Pale yellow waxy
same,Physical appearance at room temperature (25° C.),[5]; HCO-60 2.75 wt %,Pale yellow waxy
same,Physical appearance at room temperature (25° C.),[5]; HCO-60 3.0 wt %,Pale yellow waxy
same,Physical appearance at room temperature (25° C.),[5]; HCO-60 3.5 wt %,Pale yellow waxy
same,Physical appearance at room temperature (25° C.),[5]; HCO-60 4.0 wt %,Pale yellow waxy
